Experimental data: ChEMBL document CHEMBL2010711, “Synthesis and comparative evaluation of 4-oxa- and 4-aza-podophyllotoxins as antiproliferative microtubule destabilizing agents” (Bioorg Med Chem Lett, 2012)
Active and inactive are the calls of the source.

Experiments:
HCC 2998 = assay: Cytotoxicity against human HCC2998 cells after 48 hrs by trypan blue dye exclusion assay; assay type: functional; conditions: HCC 2998, 48 h
HCT-116 = assay: Cytotoxicity against human HCT116 cells after 48 hrs by trypan blue dye exclusion assay; assay type: functional; conditions: HCT-116, 48 h
SNB-75 = assay: Cytotoxicity against human SNB75 cells after 48 hrs by trypan blue dye exclusion assay; assay type: functional; conditions: SNB-75, 48 h
SK-MEL-28 = assay: Cytotoxicity against human SK-MEL-28 cells after 48 hrs by trypan blue dye exclusion assay; assay type: functional; conditions: SK-MEL-28, 48 h
U-251 = assay: Cytotoxicity against human U251 cells after 48 hrs by trypan blue dye exclusion assay; assay type: functional; conditions: U-251, 48 h
HT-29 = assay: Cytotoxicity against human HT-29 cells after 48 hrs by trypan blue dye exclusion assay; assay type: functional; conditions: HT-29, 48 h
UO-31 = assay: Cytotoxicity against human UO31 cells after 48 hrs by trypan blue dye exclusion assay; assay type: functional; conditions: UO-31, 48 h
LOX IMVI = assay: Cytotoxicity against human LOXIMVI cells after 48 hrs by trypan blue dye exclusion assay; assay type: functional
[1] = Cytotoxicity against human Hs 578T cells after 48 hrs by trypan blue dye exclusion assay; assay type: functional
Paracentrotus lividus [2] = assay: Antimitotic activity against Paracentrotus lividus embryo assessed as cleavage alteration at 2 fold less effective threshold concentration after 2.5 to 6 hrs; assay type: functional, organism-based
ACHN = assay: Cytotoxicity against human ACHN cells after 48 hrs by trypan blue dye exclusion assay; assay type: functional
KM12 = assay: Cytotoxicity against human KM12 cells after 48 hrs by trypan blue dye exclusion assay; assay type: functional; conditions: KM12, 48 h
Paracentrotus lividus [3] = assay: Antimitotic activity against Paracentrotus lividus embryo assessed as concentration required to cause 100% cleavage arrest after 2.5 to 6 hrs; assay type: functional
NCI/ADR-RES = assay: Cytotoxicity against human NCI/ADR-RES cells after 48 hrs by trypan blue dye exclusion assay; assay type: functional
SN12C = assay: Cytotoxicity against human SN12C cells after 48 hrs by trypan blue dye exclusion assay; assay type: functional
HCT-15 = assay: Cytotoxicity against human HCT15 cells after 48 hrs by trypan blue dye exclusion assay; assay type: functional; conditions: HCT-15, 48 h
Paracentrotus lividus [4] = assay: Antimitotic activity against Paracentrotus lividus embryo assessed as concentration required to cause 100% cleavage alteration after 2.5 to 6 hrs; assay type: functional
MDA-MB-468 = assay: Cytotoxicity against human MDA-MB-468 cells after 48 hrs by trypan blue dye exclusion assay; assay type: functional; conditions: MDA-MB-468, 48 h
SK-MEL-2 = assay: Cytotoxicity against human SK-MEL-2 cells after 48 hrs by trypan blue dye exclusion assay; assay type: functional; conditions: SK-MEL-2, 48 h
Paracentrotus lividus [5] = assay: Antimitotic activity against Paracentrotus lividus embryo assessed as cleavage arrest at 2 fold less effective threshold concentration after 2.5 to 6 hrs; assay type: functional, organism-based
A549 = assay: Cytotoxicity against human A549 cells after 48 hrs by trypan blue dye exclusion assay; assay type: functional; conditions: A549, 48 h
CCRF-CEM = assay: Cytotoxicity against human CCRF-CEM cells after 48 hrs by trypan blue dye exclusion assay; assay type: functional
SNB-19 = assay: Cytotoxicity against human SNB19 cells after 48 hrs by trypan blue dye exclusion assay; assay type: functional; conditions: SNB-19, 48 h
T47D = assay: Cytotoxicity against human T47D cells after 48 hrs by trypan blue dye exclusion assay; assay type: functional
BT-549 = assay: Cytotoxicity against human BT549 cells after 48 hrs by trypan blue dye exclusion assay; assay type: functional; conditions: BT-549, 48 h
MDA-MB-231 = assay: Cytotoxicity against human MDA-MB-231 cells after 48 hrs by trypan blue dye exclusion assay; assay type: functional; conditions: MDA-MB-231, 48 h
SF-295 = assay: Cytotoxicity against human SF295 cells after 48 hrs by trypan blue dye exclusion assay; assay type: functional; conditions: SF-295, 48 h
RXF 393 = assay: Cytotoxicity against human RXF393 cells after 48 hrs by trypan blue dye exclusion assay; assay type: functional; conditions: RXF 393, 48 h
IGROV-1 = assay: Cytotoxicity against human IGROV1 cells after 48 hrs by trypan blue dye exclusion assay; assay type: functional; conditions: IGROV-1, 48 h
NCI-H460 = assay: Cytotoxicity against human NCI-H460 cells after 48 hrs by trypan blue dye exclusion assay; assay type: functional; conditions: NCI-H460, 48 h
SK-OV-3 = assay: Cytotoxicity against human SKOV3 cells after 48 hrs by trypan blue dye exclusion assay; assay type: functional; conditions: SK-OV-3, 48 h
Paracentrotus lividus [6] = assay: Microtubule destabilizing activity in Paracentrotus lividus embryo assessed as embryo spinning at 2 fold less effective threshold concentration after 15 mins to 20 hrs; assay type: functional, organism-based
NCI-H522 = assay: Cytotoxicity against human NCI-H522 cells after 48 hrs by trypan blue dye exclusion assay; assay type: functional; conditions: NCI-H522, 48 h
RPMI-8226 = assay: Cytotoxicity against human RPMI8226 cells after 48 hrs by trypan blue dye exclusion assay; assay type: functional; conditions: RPMI-8226, 48 h
NCI-H23 = assay: Cytotoxicity against human NCI-H23 cells after 48 hrs by trypan blue dye exclusion assay; assay type: functional; conditions: NCI-H23, 48 h
PC-3 = assay: Cytotoxicity against human PC3 cells after 48 hrs by trypan blue dye exclusion assay; assay type: functional; conditions: PC-3, 48 h
M14 = assay: Cytotoxicity against human M14 cells after 48 hrs by trypan blue dye exclusion assay; assay type: functional; conditions: M14, 48 h
MDA-MB-435 = assay: Cytotoxicity against human MDA-MB-435 cells after 48 hrs by trypan blue dye exclusion assay; assay type: functional; conditions: MDA-MB-435, 48 h
COLO 205 = assay: Cytotoxicity against human COLO205 cells after 48 hrs by trypan blue dye exclusion assay; assay type: functional; conditions: COLO 205, 48 h
OVCAR-3 = assay: Cytotoxicity against human OVCAR3 cells after 48 hrs by trypan blue dye exclusion assay; assay type: functional; conditions: OVCAR-3, 48 h
DU-145 = assay: Cytotoxicity against human DU145 cells after 48 hrs by trypan blue dye exclusion assay; assay type: functional; conditions: DU-145, 48 h
786-0 = assay: Cytotoxicity against human 786-0 cells after 48 hrs by trypan blue dye exclusion assay; assay type: functional; conditions: 786-0, 48 h
HL-60(TB) = assay: Cytotoxicity against human HL-60(TB) cells after 48 hrs by trypan blue dye exclusion assay; assay type: functional; conditions: HL-60, 48 h
SW-620 = assay: Cytotoxicity against human SW620 cells after 48 hrs by trypan blue dye exclusion assay; assay type: functional; conditions: SW-620, 48 h
SR = assay: Cytotoxicity against human SR cells after 48 hrs by trypan blue dye exclusion assay; assay type: functional
A498 = assay: Cytotoxicity against human A498 cells after 48 hrs by trypan blue dye exclusion assay; assay type: functional; conditions: A498, 48 h
MOLT-4 = assay: Cytotoxicity against human MOLT4 cells after 48 hrs by trypan blue dye exclusion assay; assay type: functional; conditions: MOLT-4, 48 h
NCI-H226 = assay: Cytotoxicity against human NCI-H226 cells after 48 hrs by trypan blue dye exclusion assay; assay type: functional; conditions: NCI-H226, 48 h
OVCAR-8 = assay: Cytotoxicity against human OVCAR8 cells after 48 hrs by trypan blue dye exclusion assay; assay type: functional; conditions: OVCAR-8, 48 h
MCF7 = assay: Cytotoxicity against human MCF7 cells after 48 hrs by trypan blue dye exclusion assay; assay type: functional; conditions: MCF7, 48 h
OVCAR-5 = assay: Cytotoxicity against human OVCAR5 cells after 48 hrs by trypan blue dye exclusion assay; assay type: functional; conditions: OVCAR-5, 48 h
SF-268 = assay: Cytotoxicity against human SF268 cells after 48 hrs by trypan blue dye exclusion assay; assay type: functional; conditions: SF-268, 48 h
Malme-3M = assay: Cytotoxicity against human MALME-3M cells after 48 hrs by trypan blue dye exclusion assay; assay type: functional
UACC-62 = assay: Cytotoxicity against human UACC62 cells after 48 hrs by trypan blue dye exclusion assay; assay type: functional; conditions: UACC-62, 48 h
TK-10 = assay: Cytotoxicity against human TK10 cells after 48 hrs by trypan blue dye exclusion assay; assay type: functional; conditions: TK-10, 48 h
OVCAR-4 = assay: Cytotoxicity against human OVCAR4 cells after 48 hrs by trypan blue dye exclusion assay; assay type: functional; conditions: OVCAR-4, 48 h
Paracentrotus lividus [7] = assay: Microtubule destabilizing activity in Paracentrotus lividus embryo assessed as concentration required to cause 100% embryo spinning after 15 mins to 20 hrs; assay type: functional
SF-539 = assay: Cytotoxicity against human SF539 cells after 48 hrs by trypan blue dye exclusion assay; assay type: functional; conditions: SF-539, 48 h
EKVX = assay: Cytotoxicity against human EKVX cells after 48 hrs by trypan blue dye exclusion assay; assay type: functional
HOP-92 = assay: Cytotoxicity against human HOP92 cells after 48 hrs by trypan blue dye exclusion assay; assay type: functional; conditions: HOP-92, 48 h

COc1ccc2c(c1)OC1=C(C(=O)OC1)C2c1cc(OC)c(OC)c(OC)c1 (stereo not given)
GI50 (HCC 2998): 1350 nM
GI50 (HCT-116): 496 nM
GI50 (SNB-75): 172 nM
GI50 (SK-MEL-28): 667 nM
GI50 (U-251): 731 nM
GI50 (HT-29): 323 nM
GI50 (UO-31): 936 nM
GI50 (LOX IMVI): 505 nM
GI50 [1]: 377 nM
Activity (Paracentrotus lividus [2]): inactive
GI50 (ACHN): 1630 nM
GI50 (KM12): 464 nM
EC (Paracentrotus lividus [3]): 50 nM
GI50 (NCI/ADR-RES): 334 nM
GI50 (SN12C): 993 nM
GI50 (HCT-15): 508 nM
EC (Paracentrotus lividus [4]): 5 nM
GI50 (MDA-MB-468): 232 nM
GI50 (SK-MEL-2): 439 nM
Activity (Paracentrotus lividus [5]): inactive
GI50 (A549): 707 nM
GI50 (CCRF-CEM): 315 nM
GI50 (SNB-19): 553 nM
GI50 (T47D): 489 nM
GI50 (BT-549): 947 nM
GI50 (MDA-MB-231): 1740 nM
GI50 (SF-295): 288 nM
GI50 (RXF 393): 231 nM
GI50 (IGROV-1): 1130 nM
GI50 (NCI-H460): 1270 nM
GI50 (SK-OV-3): 368 nM
Activity (Paracentrotus lividus [6]): inactive
GI50 (NCI-H522): 378 nM
GI50 (RPMI-8226): 816 nM
GI50 (NCI-H23): 441 nM
GI50 (PC-3): 482 nM
GI50 (M14): 505 nM
GI50 (MDA-MB-435): 120 nM
GI50 (COLO 205): 309 nM
GI50 (OVCAR-3): 332 nM
GI50 (DU-145): 648 nM
GI50 (786-0): 562 nM
GI50 (HL-60(TB)): 249 nM
GI50 (SW-620): 352 nM
GI50 (SR): 242 nM
GI50 (A498): 295 nM
GI50 (MOLT-4): 515 nM
GI50 (NCI-H226): 47500 nM
GI50 (OVCAR-8): 788 nM
GI50 (MCF7): 330 nM
GI50 (OVCAR-5): 4680 nM
GI50 (SF-268): 731 nM
GI50 (Malme-3M): 468 nM
GI50 (UACC-62): 568 nM
GI50 (TK-10): > 100000 nM
GI50 (OVCAR-4): 2650 nM
EC (Paracentrotus lividus [7]): 200 nM
GI50 (SF-539): 376 nM
GI50 (EKVX): 1420 nM
GI50 (HOP-92): 496 nM
